For assay [1], the target named is T1, LFA-1 binding to immobilized ICAM-1 (Homo sapiens, UniProt P05107+P20701).
T1 construct: made in house; host or cells: transfected 293 cells (LFA-1)
The assay can be described thus: LFA-1/ICAM-1 protein-protein assay (solid-phase ELISA). The method, boiled down:
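Human 5dICAM-Ig (ICAM-1 extracellular domain–IgG Fc) coated on plates; membrane-bound LFA-1 from transfected 293 cells (280 ng/mL) added with compound in Mn2+-containing HEPES buffer pH 7.2, 2 h at 37° C. Bound LFA-1 detected via anti-β2 antibody and HRP/TMB at 450 nm; IC50s determined.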
For orientation: ELISA stands for enzyme-linked immunosorbent assay.

For assay [2], the system named is T lymphocyte proliferation (C57BI/6 spleen cells with irradiated BALB/c spleen cells). Briefly: Mixed lymphocyte reaction (MLR), one-way. It counts as cell-based, mice. The method, boiled down: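 One-way murine MLR: C57BI/6 responder splenocytes proliferate against irradiated BALB/c stimulators while exposed to serially diluted antagonists in supplemented RPMI1640 for 3 days. Proliferation read as [3H]-thymidine uptake over a final 6 h pulse (0.5 μCi/well), scintillation counted.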

Setting [3] is: read-out: LFA-1/ICAM-1 Protein-Protein Assay IC50.
The mark [4] stands for this setting: Mus musculus, T-lymphocyte; read-out: MLR IC50.
The mark [5] stands for this setting: LFA-1/ICAM-1 Protein-Protein Assay IC50.
The mark [6] stands for this setting: Mus musculus, T-lymphocyte, read-out: MLR IC50.

pIC50: −log10 of the molar value. Where two headings read alike, the source gives them in different places.

T1 sequence (P20701 26-1170): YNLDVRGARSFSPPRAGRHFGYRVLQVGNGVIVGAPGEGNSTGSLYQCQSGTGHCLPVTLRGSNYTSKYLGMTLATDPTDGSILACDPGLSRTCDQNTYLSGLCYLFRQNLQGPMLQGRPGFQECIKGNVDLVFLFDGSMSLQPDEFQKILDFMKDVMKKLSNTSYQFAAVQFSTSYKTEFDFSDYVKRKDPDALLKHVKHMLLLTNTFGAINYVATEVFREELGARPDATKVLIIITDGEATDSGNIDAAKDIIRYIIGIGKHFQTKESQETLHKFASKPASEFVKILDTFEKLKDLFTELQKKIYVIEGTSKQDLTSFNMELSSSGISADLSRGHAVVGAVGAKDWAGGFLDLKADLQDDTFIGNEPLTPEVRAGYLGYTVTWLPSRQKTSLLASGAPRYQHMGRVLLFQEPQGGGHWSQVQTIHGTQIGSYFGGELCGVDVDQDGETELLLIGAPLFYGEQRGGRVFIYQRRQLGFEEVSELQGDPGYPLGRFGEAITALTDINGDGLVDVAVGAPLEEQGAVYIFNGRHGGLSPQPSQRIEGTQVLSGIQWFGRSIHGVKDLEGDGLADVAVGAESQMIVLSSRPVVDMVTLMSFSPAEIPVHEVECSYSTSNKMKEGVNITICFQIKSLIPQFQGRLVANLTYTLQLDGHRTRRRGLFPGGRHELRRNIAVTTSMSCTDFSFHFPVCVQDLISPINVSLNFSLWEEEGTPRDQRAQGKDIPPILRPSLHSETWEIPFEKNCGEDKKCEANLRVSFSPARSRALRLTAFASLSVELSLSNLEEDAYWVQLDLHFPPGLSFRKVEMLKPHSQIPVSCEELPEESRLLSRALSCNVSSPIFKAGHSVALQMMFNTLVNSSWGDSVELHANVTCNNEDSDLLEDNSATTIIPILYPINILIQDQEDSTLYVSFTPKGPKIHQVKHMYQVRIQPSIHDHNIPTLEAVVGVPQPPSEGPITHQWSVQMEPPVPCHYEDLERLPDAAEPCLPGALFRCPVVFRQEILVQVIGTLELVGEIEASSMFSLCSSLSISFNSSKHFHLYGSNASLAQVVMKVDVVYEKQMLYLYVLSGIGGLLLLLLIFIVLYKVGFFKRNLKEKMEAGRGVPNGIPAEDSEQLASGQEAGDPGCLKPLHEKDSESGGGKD
T1 sequence (P05107 23-769): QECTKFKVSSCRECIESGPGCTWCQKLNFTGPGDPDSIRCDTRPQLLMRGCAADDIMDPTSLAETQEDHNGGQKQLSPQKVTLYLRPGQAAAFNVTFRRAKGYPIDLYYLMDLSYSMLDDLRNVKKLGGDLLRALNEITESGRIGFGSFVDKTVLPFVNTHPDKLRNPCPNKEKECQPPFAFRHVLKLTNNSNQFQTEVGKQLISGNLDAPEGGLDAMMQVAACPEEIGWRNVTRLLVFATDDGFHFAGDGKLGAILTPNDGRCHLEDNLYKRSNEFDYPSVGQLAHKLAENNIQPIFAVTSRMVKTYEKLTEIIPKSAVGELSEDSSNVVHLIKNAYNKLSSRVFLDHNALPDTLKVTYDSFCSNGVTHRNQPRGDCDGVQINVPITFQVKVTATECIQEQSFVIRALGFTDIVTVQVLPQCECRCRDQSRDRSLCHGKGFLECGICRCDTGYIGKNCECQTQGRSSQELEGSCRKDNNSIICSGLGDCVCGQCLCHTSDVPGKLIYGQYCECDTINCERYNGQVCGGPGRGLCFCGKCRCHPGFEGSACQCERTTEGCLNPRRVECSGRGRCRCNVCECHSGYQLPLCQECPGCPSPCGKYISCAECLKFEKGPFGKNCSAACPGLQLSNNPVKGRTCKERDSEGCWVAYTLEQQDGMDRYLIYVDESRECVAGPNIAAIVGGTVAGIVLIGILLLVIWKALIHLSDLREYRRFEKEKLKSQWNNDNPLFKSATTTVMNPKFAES

Turning to `O=C(CC1CCCCC1)NC[C@H](NC(=O)c1ccc(C(=O)NCc2cccc(O)c2)cc1Cl)C(=O)O` [Example 78], the pIC50 in assay [1] (setting [3]) is 9.00; in assay [2] (setting [4]) it was 5.99.

Regarding `O=C(Cc1ccccc1)NC[C@H](NC(=O)c1ccc(C(=O)NCc2cccc(O)c2)cc1Cl)C(=O)O` [Example 79], the pIC50 is 8.54 in assay [1] (setting [3]) and 5.60 in assay [2] (setting [4]).

Consider `COc1ccc(CC(=O)NC[C@H](NC(=O)c2ccc(C(=O)NCc3cccc(O)c3)cc2Cl)C(=O)O)cc1` [Example 80], for which the pIC50 in assay [1] (setting [3]) is 8.22; in assay [2] (setting [4]), 5.74.

As for `O=C(Cc1ccc([N+](=O)[O-])cc1)NC[C@H](NC(=O)c1ccc(C(=O)NCc2cccc(O)c2)cc1Cl)C(=O)O` [Example 81], the pIC50 in assay [1] (setting [3]) is 8.40; in assay [2] (setting [4]), 5.78.

Take `O=C(Cc1cccc(C(F)(F)F)c1)NC[C@H](NC(=O)c1ccc(C(=O)NCc2cccc(O)c2)cc1Cl)C(=O)O` [Example 82]: the pIC50 in assay [1] (setting [3]) is 8.37; in assay [2] (setting [4]) it was 5.77.

For `O=C(Cc1ccc([N+](=O)[O-])cc1[N+](=O)[O-])NC[C@H](NC(=O)c1ccc(C(=O)NCc2cccc(O)c2)cc1Cl)C(=O)O` [Example 83], the pIC50 in assay [1] (setting [5]) is 8.64; in assay [2] (setting [6]), 6.34.

On to `O=C(Cc1cccs1)NC[C@H](NC(=O)c1ccc(C(=O)NCc2cccc(O)c2)cc1Cl)C(=O)O` [Example 84], for which the pIC50 is 9.00 in assay [1] (setting [3]) and 5.89 in assay [2] (setting [4]).

Regarding `O=C(NCc1cccc(O)c1)c1ccc(C(=O)N[C@@H](CNC(=O)C(c2ccccc2)c2ccccc2)C(=O)O)c(Cl)c1` [Example 86], the pIC50 in assay [1] (setting [3]) is 8.48; in assay [2] (setting [4]), 5.38.

As to `O=C(Cc1ccc2ccccc2c1)NC[C@H](NC(=O)c1ccc(C(=O)NCc2cccc(O)c2)cc1Cl)C(=O)O` [Example 87], the pIC50 in assay [1] (setting [3]) was 8.32; in assay [2] (setting [4]), 5.89.

For the molecule `O=C(CC1c2ccccc2-c2ccccc21)NC[C@H](NC(=O)c1ccc(C(=O)NCc2cccc(O)c2)cc1Cl)C(=O)O` [Example 88], the values for the pIC50 in assay [1] (setting [3]) and in assay [2] (setting [4]) were 8.74 and 4.90, respectively.

As for `O=C(C[n+]1csc2ccccc21)NC[C@H](NC(=O)c1ccc(C(=O)NCc2cccc(O)c2)cc1Cl)C(=O)O` [Example 89], the pIC50 in assay [1] (setting [3]) is 8.23; in assay [2] (setting [4]), 4.98.

For the molecule `O=C(CSc1ccncc1)NC[C@H](NC(=O)c1ccc(C(=O)NCc2cccc(O)c2)cc1Cl)C(=O)O` [Example 90], the pIC50 in assay [1] (setting [3]) was 8.62; in assay [2] (setting [4]) it was 5.84.

For `O=C(CSc1ncccn1)NC[C@H](NC(=O)c1ccc(C(=O)NCc2cccc(O)c2)cc1Cl)C(=O)O` [Example 91], the figures for the pIC50 in assay [1] (setting [3]) and in assay [2] (setting [4]) were 8.30 and 5.61, respectively.

For the molecule `CC(C)(C)C(=O)NC[C@H](NC(=O)c1ccc(C(=O)NCc2cccc(O)c2)cc1Cl)C(=O)O` [Example 92], the results for the pIC50 in assay [1] (setting [3]) and in assay [2] (setting [4]) were 8.68 and 6.05, respectively.

In the case of `O=C(NCc1cccc(O)c1)c1ccc(C(=O)N[C@@H](CNC(=O)C23CC4CC(CC(C4)C2)C3)C(=O)O)c(Cl)c1` [Example 93], the pIC50 was 9.30 in assay [1] (setting [3]) and 6.28 in assay [2] (setting [4]).

On to `O=C(CCc1ccccc1)NC[C@H](NC(=O)c1ccc(C(=O)NCc2cccc(O)c2)cc1Cl)C(=O)O` [Example 94], for which the values for the pIC50 in assay [1] (setting [3]) and in assay [2] (setting [4]) were 8.82 and 5.85, respectively.

On to `O=C(NCc1cccc(O)c1)c1ccc(C(=O)N[C@@H](CNC(=O)c2cc([N+](=O)[O-])cc([N+](=O)[O-])c2)C(=O)O)c(Cl)c1` [Example 129], for which the pIC50 is 8.38 in assay [1] (setting [5]) and 5.52 in assay [2] (setting [6]).

On to `O=C(NCc1cccc(O)c1)c1ccc(C(=O)N[C@@H](CNC(=O)c2cnccn2)C(=O)O)c(Cl)c1` [Example 170], for which the pIC50 in assay [1] (setting [3]) was 8.72; in assay [2] (setting [4]), 6.25.

For `O=C(NCc1cccc(O)c1)c1ccc(C(=O)N[C@@H](CNC(=O)c2cc3ccccc3s2)C(=O)O)c(Cl)c1` [Example 175], the results for the pIC50 in assay [1] (setting [3]) and in assay [2] (setting [4]) were 8.59 and 5.40, respectively.

Take `O=C(NCc1cccc(O)c1)c1ccc(C(=O)N[C@@H](CNC(=O)c2ccc3ncsc3c2)C(=O)O)c(Cl)c1` [Example 177]: the pIC50 was 9.00 in assay [1] (setting [3]) and 6.02 in assay [2] (setting [4]).

Regarding `O=C(NCc1cccc(O)c1)c1ccc(C(=O)N[C@@H](CNC(=O)c2cccc3ccccc23)C(=O)O)c(Cl)c1` [Example 178], the pIC50 in assay [1] (setting [3]) was 8.64; in assay [2] (setting [4]), 6.05.

Turning to `O=C(NCc1cccc(O)c1)c1ccc(C(=O)N[C@@H](CNC(=O)c2ccc3ccccc3c2)C(=O)O)c(Cl)c1` [Example 179], the pIC50 in assay [1] (setting [3]) is 8.44; in assay [2] (setting [4]) it was 5.27.

Take `O=C(NCc1cccc(O)c1)c1ccc(C(=O)N[C@@H](CNC(=O)c2cnc3ccccc3c2)C(=O)O)c(Cl)c1` [Example 183]: the pIC50 was 7.92 in assay [1] (setting [3]) and 5.34 in assay [2] (setting [4]).

Regarding `O=C(NCc1cccc(O)c1)c1ccc(C(=O)N[C@@H](CNC(=O)c2cc(=O)c3ccccc3o2)C(=O)O)c(Cl)c1` [Example 187], the values for the pIC50 in assay [1] (setting [3]) and in assay [2] (setting [4]) were 7.92 and 5.55, respectively.

Take `O=C(NCc1cccc(O)c1)c1ccc(C(=O)N[C@@H](CNC(=O)c2c3c(nc4ccccc24)CCCC3)C(=O)O)c(Cl)c1` [Example 190]: the pIC50 in assay [1] (setting [3]) is 7.89.

Regarding `O=C(NCc1cccc(O)c1)c1ccc(C(=O)N[C@@H](CNC(=O)c2ccc3c(c2)S(=O)(=O)c2ccccc2C3=O)C(=O)O)c(Cl)c1` [Example 192], the pIC50 in assay [1] (setting [3]) was 8.89; in assay [2] (setting [4]) it was 5.77.

Regarding `CC(=O)NC[C@H](NC(=O)c1ccc(C(=O)NCc2cccc(O)c2)cc1Cl)C(=O)O` [Example 193], the figures for the pIC50 in assay [1] (setting [3]) and in assay [2] (setting [4]) were 9.15 and 6.08, respectively.

As for `CC(C)C(=O)NC[C@H](NC(=O)c1ccc(C(=O)NCc2cccc(O)c2)cc1Cl)C(=O)O` [Example 194], the values for the pIC50 in assay [1] (setting [3]) and in assay [2] (setting [4]) were 8.72 and 6.10, respectively.

Consider `CC(C)CC(=O)NC[C@H](NC(=O)c1ccc(C(=O)NCc2cccc(O)c2)cc1Cl)C(=O)O` [Example 195], for which the pIC50 was 8.70 in assay [1] (setting [3]) and 6.08 in assay [2] (setting [4]).

In the case of `O=C(NCc1cccc(O)c1)c1ccc(C(=O)N[C@@H](CNC(=O)[C@@H]2CCCN2)C(=O)O)c(Cl)c1` [Example 196], the values for the pIC50 in assay [1] (setting [3]) and in assay [2] (setting [4]) were 8.55 and 5.26, respectively.

`CSCC[C@H](N)C(=O)NC[C@H](NC(=O)c1ccc(C(=O)NCc2cccc(O)c2)cc1Cl)C(=O)O` [Example 197]: the results for the pIC50 in assay [1] (setting [3]) and in assay [2] (setting [4]) were 8.31 and 4.65, respectively.

As for `NCCCC[C@H](N)C(=O)NC[C@H](NC(=O)c1ccc(C(=O)NCc2cccc(O)c2)cc1Cl)C(=O)O` [Example 198], the pIC50 in assay [1] (setting [3]) was 7.92; in assay [2] (setting [4]), 4.67.

Turning to `N[C@@H](Cc1ccccc1)C(=O)NC[C@H](NC(=O)c1ccc(C(=O)NCc2cccc(O)c2)cc1Cl)C(=O)O` [Example 199], the figures for the pIC50 in assay [1] (setting [3]) and in assay [2] (setting [4]) were 8.13 and 4.72, respectively.

Regarding `NC(=O)C[C@H](N)C(=O)NC[C@H](NC(=O)c1ccc(C(=O)NCc2cccc(O)c2)cc1Cl)C(=O)O` [Example 200], the pIC50 in assay [1] (setting [3]) is 8.54; in assay [2] (setting [4]), 5.51.

With `N[C@@H](Cc1c[nH]c2ccccc12)C(=O)NC[C@H](NC(=O)c1ccc(C(=O)NCc2cccc(O)c2)cc1Cl)C(=O)O` [Example 201], the pIC50 in assay [1] (setting [3]) was 8.12; in assay [2] (setting [4]), 4.76.

For `N[C@@H](CCC(=O)NC[C@H](NC(=O)c1ccc(C(=O)NCc2cccc(O)c2)cc1Cl)C(=O)O)C(=O)O` [Example 202], the pIC50 is 8.74 in assay [1] (setting [3]) and 6.30 in assay [2] (setting [4]).

With `O=C(NC[C@H](NC(=O)c1c(Cl)cccc1Cl)C(=O)O)c1ccccc1` [Example 219], the pIC50 was 7.89 in assay [1] (setting [3]) and 5.14 in assay [2] (setting [4]).

Turning to `O=C(NC[C@H](NC(=O)c1c(Cl)cccc1Cl)C(=O)O)c1ccc(Br)s1` [Example 223], the pIC50 in assay [1] (setting [3]) is 8.19; in assay [2] (setting [4]), 5.44.

Regarding `O=C(NC[C@H](NC(=O)c1c(F)cccc1Cl)C(=O)O)c1ccc(Br)s1` [Example 224], the pIC50 in assay [1] (setting [3]) is 7.62; in assay [2] (setting [4]), 4.95.

`O=C(NC[C@H](NC(=O)c1c(F)cccc1Cl)C(=O)O)c1ccc2[nH]nnc2c1` [Example 226]: the pIC50 in assay [1] (setting [3]) is 7.33.

Consider `O=C(NCc1cccc(O)c1)c1ccc(C(=O)N[C@@H](CNC(=O)c2cc(F)cc(F)c2)C(=O)O)c(Cl)c1` [Example 252, N-[2-chloro-4-[[[(3-hydroxyphenyl)methyl]amino]carbonyl]benzoyl]-3-(3,5-difluorobenzoyl)amino-L-alanine], for which the pIC50 is 9.05 in assay [1] (setting [3]) and 6.47 in assay [2] (setting [4]).

On to `O=C(NCc1cccc(O)c1)c1ccc(C(=O)N[C@@H](CNC(=O)c2csnn2)C(=O)O)c(Cl)c1` [Example 254], for which the pIC50 is 9.15 in assay [1] (setting [3]) and 6.34 in assay [2] (setting [4]).

Consider `Cc1nnsc1C(=O)NC[C@H](NC(=O)c1ccc(C(=O)NCc2cccc(O)c2)cc1Cl)C(=O)O` [Example 255], for which the pIC50 is 8.54 in assay [1] (setting [3]) and 5.73 in assay [2] (setting [4]).

As to `O=C(NCc1cccc(O)c1)c1ccc(C(=O)N[C@@H](CNC(=O)c2ccno2)C(=O)O)c(Cl)c1` [Example 256], the pIC50 in assay [1] (setting [3]) was 9.10; in assay [2] (setting [4]), 6.28.

Take `COc1cscc1C(=O)NC[C@H](NC(=O)c1ccc(C(=O)NCc2cccc(O)c2)cc1Cl)C(=O)O` [Example 257]: the figures for the pIC50 in assay [1] (setting [3]) and in assay [2] (setting [4]) were 8.92 and 5.85, respectively.
